Reference: BindingDB's records for doi:10.1016/j.bmc.2009.07.009 (Universita Degli Studi Di Milano, 2009)

Molecular target: XIAP (Homo sapiens)
Assay: Fluorescence polarization was measured on an Ultra plate reader (Tecan) at excitation and emission wavelengths of 485 and 530 nm, respectively. The equilibrium binding curves were drawn by plotting millipolarization units (mP) as a function of recombinant XIAP concentration. All experiments were performed in black, flat-bottomed, 96-well mic
Details: pH 7.5

IC50	SMILES
600 nM	CC[C@H](N)C(=O)N[C@@H]1C(=O)N2[C@@H](CC[C@@H]1COC(=O)c1ccccc1)CC[C@H]2C(=O)NC(c1ccccc1)c1ccccc1 [1-aza-2-oxobicyclo[5.3.0]decane scaffold, 12b]
250 nM	CC[C@H](N)C(=O)N[C@@H]1C(=O)N2[C@@H](CC[C@@H]1CCN)CC[C@H]2C(=O)NC(c1ccccc1)c1ccccc1 [(3S,6S,7R,9aS)-6-[(2S)-2-aminobutanamido]-7-(2-aminoethyl)-N-(diphenylmethyl)-5-oxo-octahydro-1H-pyrrolo[1,2-a]azepine-3-carboxamide]
